# Data from the SangsterLogP compilation.
# What was measured:
# [1] = method code SF-RC, from DOI: 10.1016/j.nucmedbio.2006.06.006, PMID: 16934700; conditions: pH 7.4
# [2] = not given; remark: listed apart in the source
# [3] = method code SF-HPLC, from DOI: 10.1039/a702469j; conditions: pH 7.0
# [4] = not given; remark: listed apart in the source
# [5] = not given; remark: listed apart in the source
# [6] = not given; remark: listed apart in the source
# [7] = method code SF-RC, from DOI: 10.1016/s0969-8051(02)00326-8, PMID: 12234587; conditions: pH 7.4
# [8] = method code SF-AS, from DOI: 10.1021/jm00395a009, PMID: 3681892; conditions: pH 7.4
# [9] = method code SF-AS, from DOI: 10.1002/chin.198428254
# [10] = method code SF-AS, from DOI: 10.1021/jm00296a014, PMID: 5418493
# [11] = method code SF, from PMID: 8999431; conditions: pH 7.4
# [12] = method code SF-AS, from DOI: 10.1002/ps.2780160411
# [13] = method code SF, from DOI: 10.1016/0168-3659(92)90078-6; conditions: pH 7.0
# [14] = not given; remark: listed apart in the source
# [15] = method code SF-RC, from Godoy, N.; Valle, L.; Mena, P.; Gil, M. (1989). Synthesis, labeling and biodistribution of 99mTc-labelled bromoimino diacetic acids. Nucleotecnica, 9(17)25-32.
# [16] = method code SF-AS, from DOI: 10.1248/cpb.32.5003, PMID: 6534549
# [17] = not given; remark: listed apart in the source
# [18] = not given; remark: listed apart in the source
# [19] = method code SF-AS, from DOI: 10.1163/156856796x00098; conditions: pH 7.4
# [20] = method code SF-HPLC, from DOI: 10.1016/s0021-9673(99)01336-9, PMID: 10757301
# [21] = method code SF-AS, from DOI: 10.1002/etc.5620180606
# [22] = method code SF-HPLC, from DOI: 10.1002/jps.10072, PMID: 11920751; conditions: pH 7.4
# [23] = method code SF-AS, from Dallet, P.; Dubost, J.; Colleter, J.; Audry, E.; Creuzet, M. (1985). QSAR in a series of alpha-adrenolitic molecules: optimization of physicochemical parameters. Eur J Med Chem, 20(6)551-557.
# [24] = not given; remark: listed apart in the source
# [25] = pH 7.4
compound,measurement,setting,value
FCCCOc1ccc(-c2cc3ccccc3s2)cc1,logD,[1],2.88
CC1(C)S[C@@H]2[C@H](NC(=O)[C@@H](c3ccccc3)S(=O)(=O)O)C(=O)N2[C@H]1C(=O)O,logP,,0.59
ON=C1CCN(CCCc2ccccc2)CC1,logP,[2],2.8
CCOP(=O)(OCC)C(C)(C)[N+]([O-])=Cc1ccncc1,logD,[3],0.32
Clc1cccc(Cl)c1C=NN=c1ccn(CCc2c(Cl)cccc2Cl)cc1,logP,[2],4
Cc1onc(-c2c(F)cccc2Cl)c1C(=O)N[C@@H]1C(=O)N2[C@@H]1SC(C)(C)[C@@H]2C(=O)O,logP,,2.58
Cc1cccc2c1Cc1ccccc1-2,logP,[4],4.97
Cc1nc(NCCCO)c(C#N)cc1-c1ccccc1,logP,[5],2.72
CCCCOP(=O)(OCCCC)Oc1ccccc1,logP,[6],3.23
Cc1nc(NCC(C)O)c(C#N)cc1-c1ccccc1 (stereo not drawn),logP,[5],2.72
Oc1ccc(-c2cc3cc(I)ccc3o2)cc1,logD,[7],2.97
CC(=O)OC[C@H]1O[C@@H](n2ccc(=O)[nH]c2=O)[C@H](OC(C)=O)[C@@H]1OC(C)=O,logD,[8],-0.36
O=c1c(F)cn(C2CCCO2)c(=O)n1Cc1ccccc1 (stereo not drawn),logD,[8],1.38
CCOP(=O)(OCC)C(C)(C)[N+]([O-])=Cc1cccnc1,logD,[3],0.41
c1ccc2c3c([nH]c2c1)CN1CCNCC1C3 (stereo not drawn),logP,[9],0.36
O=C(O)C1c2ccccc2Oc2ccccc21,logP,[10],2.23
CCn1cc(C(=O)NC(C)C(=O)OC)c(=O)c2ccc(C)nc21 (stereo not drawn),logD,[11],2.47
O=C(NCCN1CCN2Cc3[nH]c4ccccc4c3CC2C1)c1ccccc1 (stereo not drawn),logP,[9],1.52
CC(C)CCCCCOC(=O)COc1ccc(Cl)cc1Cl,logP,[12],5.73
CCOC(=O)CNC(=O)c1cn(CC)c2nc(C)ccc2c1=O,logD,[11],2.07
CCOP(=O)(OCC)C(C)(C)[N+]([O-])=Cc1cc[n+]([O-])cc1,logD,[3],-0.68
COCC1OC(n2ccc(=O)n(Cc3ccccc3)c2=O)C(OC)C1OC (stereo not drawn),logD,[8],1.81
CCCC(=O)OC[C@@H]1CC[C@H](n2cnc3c(=O)[nH]cnc32)O1,logD,[13],0.11
CCc1nc(S(=O)(=O)Nc2c(F)cccc2F)nn1-c1ccccc1,logP,[14],3.7
CC1(C)S[C@@H]2[C@H](NC(=O)C(C(=O)Oc3ccccc3)c3ccccc3)C(=O)N2[C@H]1C(=O)O (stereo partly drawn),logP,,3.14
CCCCc1ccc(NC(=O)CN(CC(=O)O)CC(=O)O)cc1Br,logP,[15],-0.1
O=C(Cc1ccccc1)Nc1ccccc1[N+](=O)[O-],logP,[16],2.73
COc1ccc(-c2cc(C#N)c(Cl)nc2C)cc1OC,logP,[5],2.86
FC(F)C(F)(F)OCC1COC(Cn2cncn2)(c2ccc(Cl)cc2Cl)O1 (stereo not drawn),logP,[17],3.2
Cc1ccccc1C(=O)OCC1CCC(n2cnc3c(O)ncnc32)O1 (stereo not drawn),logD,[13],1.02
Cc1cc(C)cc(OP(=O)(Oc2cc(C)cc(C)c2)Oc2cc(C)cc(C)c2)c1,logP,[6],5.26
COc1ccc2c(c1)OC[C@]1(O)c3cc4c(cc3O[C@H]21)OCO4,logP,[18],2.58
O=C(NCCN1CCN2Cc3[nH]c4ccccc4c3CC2C1)c1ccccc1[N+](=O)[O-] (stereo not drawn),logP,[9],1.8
Cc1nc(S(=O)(=O)Nc2c(F)cccc2F)nn1-c1ccccc1,logP,[14],3.2
COc1ccccc1NC(=O)Cc1ccccc1,logP,[16],2.68
CCOP(=O)(CC(C)(C)[N+]([O-])=Cc1cc[n+]([O-])cc1)OCC,logD,[19],-0.74
CN(C)c1ccc(-c2cc3cc(I)ccc3o2)cc1,logD,[7],2.35
CC(=O)OCC1=C(C(=O)O)N2C(=O)[C@@H](NC(=O)CSc3ccncc3)[C@H]2SC1,logP,[20],-0.15
Nc1c(Oc2ccc(CN3CCCCCC3=O)cc2)cc(O)c2c1C(=O)c1ccccc1C2=O,logP,[21],5.3
COc1c(Br)cccc1C(=CC(=O)C(C)(C)C)n1cncn1,logP,[12],3.2
CO/N=C(\C(=O)N[C@@H]1C(=O)N2C(C(=O)O)=C(COC(C)=O)CS[C@H]12)c1csc(N)n1,logP,[20],-0.13
COc1ccc([C@@H]2COc3cc(O)ccc3C2)c(O)c1,logP,[18],2.44
CCCCC(=O)OCC(COC(=O)CCCC)OCn1cnc2c(=O)[nH]c(N)nc21,logD,[22],0.83
Cc1cc(C)c(NC(=O)CN(CC(=O)O)CC(=O)O)c(C)c1Br,logP,[15],-0.11
CCCC(=O)OCC(CO)OCn1cnc2c(=O)[nH]c(N)nc21 (stereo not drawn),logD,[22],-0.3
Cc1ccc(Cl)c(NS(=O)(=O)c2nc(C)n(-c3ccccc3)n2)c1Cl,logP,[14],4.4
Nc1c(Cl)c(Cl)c(N)c2c1C(=O)c1ccccc1C2=O,logP,[21],4.56
CCOP(=O)(CC(C)(C)[N+]([O-])=Cc1ccc(Cl)cc1)OCC,logD,[19],2.29
CN(C)c1ccc(-c2cc3ccc(I)cc3o2)cc1,logD,[7],2.12
Cc1cc(OCCNCC2CC(=O)c3ccccc3C2=O)c(C(C)C)cc1O (stereo not drawn),logP,[23],4.25
Nc1ccccc1NC(=O)Cc1ccccc1,logP,[16],1.45
O=C(O)C1c2ccccc2-c2ccccc21,logP,[10],2.8
Clc1cccc(Cl)c1C=NN=c1ccn(CCCc2ccccc2)cc1,logP,[2],3.9
COc1ccc(-c2cc3ccccc3s2)cc1,logD,[1],3.07
COc1ccc(Cc2nccc3cc(OC)c(OC)cc23)cc1OC,logP,[24],2.95
CCCC1COC(Cn2cncn2)(c2ccc(Cl)cc2Cl)O1 (stereo not drawn),logP,[17],3.4
CCCCCSCS(=O)CC(CO)NC(=O)/C=C/c1c(C)[nH]c(=O)[nH]c1=O (stereo not drawn),logD,[25],0.6
O=C(O)C1c2ccccc2Sc2ccccc21,logP,[10],2.57
CCCCC(CC)COP(=O)(Oc1ccccc1)Oc1ccccc1 (stereo not drawn),logP,[6],5
Cc1ccc(Cl)c(Nc2ccccc2C(=O)O)c1Cl,logP,[24],5.9
N#CCN(CCO)c1ccc(N=Nc2nc3ccc([N+](=O)[O-])cc3s2)cc1,logP,[21],4.08
CCOP(=O)(CC(C)(C)[N+]([O-])=Cc1ccccc1)OCC,logD,[19],1
CSC[S@](=O)C[C@H](C)NC(=O)/C=C/c1c(C)[nH]c(=O)[nH]c1=O,logD,[25],-0.7
CC(=O)OCC1=C(C(=O)O)N2C(=O)C(NC(=O)Cc3cccs3)C2SC1 (stereo not drawn),logP,[20],0.08
CC(=O)Oc1ccc(OCCN(C)C)cc1C,logP,[23],1.64
c1ccc2c(c1)Cc1cc3ccccc3cc1-2,logP,[4],5.75
CCCCC(=O)OC[C@@H]1CC[C@H](n2cnc3c(=O)[nH]cnc32)O1,logD,[13],0.65
CC1(C)C=Cc2c(ccc3c2O[C@H]2c4ccc(O)cc4OC[C@@H]32)O1 (relative stereo),logP,[18],3.58
Cc1ccc(Br)c(C)c1NC(=O)CN(CC(=O)O)CC(=O)O,logP,[15],0.28
CC(=O)OCC(COC(C)=O)OCn1cnc2c(=O)[nH]c(N)nc21,logD,[22],-0.78
Cc1cc(OCCN(C)C)c(C(C)C)cc1OS(=O)(=O)CC12CCC(CC1=O)C2(C)C (stereo not drawn),logP,[23],4.37
FCCCNc1ccc(-c2cc3ccccc3s2)cc1,logD,[1],3.56
CSC[S@](=O)C[C@H](CO)NC(=O)/C=C/c1c(C)[nH]c(=O)[nH]c1=O,logD,[25],-1.71
CCN(CC)Cc1cc(Nc2ccnc3cc(Cl)ccc23)ccc1O,logP,[24],4.2
OC(Cn1cncn1)(c1ccc(F)cc1)c1ccccc1F (stereo not drawn),logP,[17],2.3
CS(=O)(=O)NC(=O)c1cc(Oc2ccc(C(F)(F)F)cc2Cl)ccc1[N+](=O)[O-],logP,[12],2.9
CCn1cc(C(=O)NC(CC(C)C)C(=O)OC)c(=O)c2ccc(C)nc21 (stereo not drawn),logD,[11],3.15
Cc1c2ccccc2c(C)c2ccccc12,logP,[4],5.25
